Reference: publication PMC10386886, “First-in-class multifunctional TYMS nonclassical antifolate inhibitor with potent in vivo activity that prolongs survival” (JCI Insight, 2023)

How the values were obtained:
MIA PaCa-2 cells = assay: MTS viability assay, MIA PaCa-2; assay type: cell-based; details: Homo sapiens, 72-hour drug incubation, Figure 1C
Method: (§1) Cells were harvested after 72 hours, and cell pellets were stored at –80°C. […] After 72 hours, cell viability was assessed by reduction of MTS using Cell Titer 96 R Aqueous One Solution Cell Proliferation Assay Kit (Promega, catalog G8081), following manufacturer’s recommendations. […] was measured on a SpectraMax M3 (Molecular Devices). Data were plotted in GraphPad Prism 9 to determine GI50 concentration. Chemical synthesis details, including characterization of each compound, can be found in the Supplemental section associated with this publication.

[1] = test system: Luc-PANC-1 xenograft tumors; assay: Luc-PANC-1 subcutaneous xenograft tumor model; assay type: in vivo; details: 19-S vs 5-FU comparison, Supplemental Figure 6
Text: (§2) In the subcutaneous tumor model, the resulting Luc-PANC-1 xenograft tumors were monitored by direct tumor measurements and bioluminescence photon flux that is proportional to tumor size. […] Treatment was initiated 30 days after Luc-PANC-1 cell line subcutaneous injections (5 × 10^6 cells), when tumors reached 100 mm^3 in volume, generating a bioluminescence photon flux of 3 × 10^9 to 4 × 10^9 photons/s. […] Tumors from both treatment groups were excised, and the tumor mass was weighed (Figure 2E).
Luc-PANC-1 (5 × 10^6) and Luc-CM (0.5 × 10^6) cells were resuspended in 200 μL of PBS and injected subcutaneously or IP, respectively, into 6- to 8-week-old NSG mice. Tumor-bearing mice were imaged using Xenogen IVIS Lumina Bioluminescence Imaging System (PerkinElmer) every week after cell injection. […] For all animals, body weight was recorded weekly, and Luc-PANC-1 tumor volume was measured weekly with a caliper. For scheduled sacrifice experiments, animals were euthanized after 4 weeks of treatment. […] Tumor volume was calculated as volume = 0.52(length × width^2).
Prior to bioluminescence imaging the region where tumors were located was shaved. […] Following the injection of the D-luciferin substrate mice, were imaged using the Xenogen IVIS Lumina Bioluminescence Imaging System (PerkinElmer). The peak of luciferase photon flux was recorded 6 minutes after injection of the D-luciferin substrate. The total photon flux was analyzed and restricted to tumor region of interest using Living Image v2.60.1 software (Imaging Systems).

PANC-1 cells = assay: MTS viability assay, PANC-1; assay type: cell-based; details: Homo sapiens, 72-hour drug incubation, Figure 1C
[2] = test system: H1048 small cell lung cancer cell line; assay: Viability assay, H1048; assay type: cell-based; details: Homo sapiens, NCI-H1048; Supplemental Figure 1B
Method: H1048, Colo320, H630 and CCD18Co cells were purchased from ATCC. Cells were grown in RPMI
1640 supplemented with 5 U/ml Penicillin/Streptomycin and 10% fetal bovine serum at a constant
temperature of 37 °C in a humidified atmosphere of 5% carbon dioxide and were routinely tested for
mycoplasma contamination.
For GI50 determination, 3000 Colo320, H630 and CCD18Co cells per well were plated in 96 well plates
hours, cell viability was assessed by reduction of MTT (3-(4,5- dimethylthiazol-2-yl)-2,5-diphenyltetrazolium bromide) using MTT Reagent (Invitrogen, Cat # M6494), following manufacturer’s
recommendations. Chemiluminescent output (integration time 1000 ms) was measured on a
SpectraMax M3 (Molecular Devices). Data was plotted in GraphPad Prism 9 to determine GI50

BON cells = assay: MTS viability assay, BON; assay type: cell-based; details: 72-hour drug incubation, Figure 1C
TYMS [3] = assay: TYMS levels in Luc-PANC-1 xenograft tumors (immunoblot); assay type: in vivo, mouse; details: 25 mg/kg daily IP, 5 consecutive days
Text: as §2
A small piece of frozen tumor (stored at -80 °C) in RIPA buffer with phosphatase and proteinase inhibitors (Santa Cruz, sc-24948) was homogenized using Omni general laboratory homogenizer (GLH). Tumor was then centrifuged for 20 min at 12000 rpm and 4 °C to obtain whole -cell lysates that was transferred to a new tube. Protein concentration was measured using Bradford Assay and 20 µg of total protein lysate was loaded as described in Methods.
Tritium based TYMS catalytic activity assay
The catalytic activity of TYMS was determined by measuring the release of [3H] from [5-3H]dUMP (ViTrax, Cat # VT122) resulting from the conversion of dUMP to dTMP as previously described (2, 3).
The reaction conditions were optimized to determine the amount of TYMS protein needed to establish […]

in vivo [4] = details: NSG, mouse, ip
Method: Maximum tolerated dose (MTD)
(§3) experiment) or 5, 10, 25 or 50 mg/kg of 5-FU daily during 5 consecutive days. After 3 treatment cycles,
(§4) animals rested (no treatment) for one more week before euthanasia. Body weight and physical status
(§5) of all mice were closely monitored. Tissues were collected and fixed in alcoholic formalin to test for
(§6) daily during 5 consecutive days for 3 weeks. After 3 treatment cycles, animals rested (no treatment) for
(§7) one more week before euthanasia. Body weight and physical status of all mice were closely monitored.
(§8) Tissues were collected and fixed in alcoholic formalin to test for toxicity.
(§9) Specimens were fixed in alcoholic formalin for 48h and then transferred to 70% ethanol, processed and
(§10) embedded in paraffin. Tissues were serially sectioned and stained by conventional H&E. Slides were

in vivo [5] = details: FVB/129/Sv, mouse, ip
Method: Animals received 4 treatment cycles and were then monitored once off treatment until survival endpoint.
Maximum tolerated dose (MTD)
as §3, §4, §5, §6, §7, §8, §9, §10

[6] = test system: PANC-1 and MIA PaCa-2 cells; assay: Cell count assay for acquired resistance; assay type: cell-based; details: constant 10 μM
Method: 500000 PANC-1 and MiaPaCa- 2 cells were plated in 75 cm2 flasks in DMEM high glucose
supplemented with 5 U/ml Penicillin/Streptomycin and 10% fetal bovine serum. Cells were treated with
Once a week for 7 weeks, cells were trypsinized with Trypsin-
EDTA 0.05% (Gibco) and counted using Cellometer Auto T4 (Nexcelom Bioscience). 500000 cells were
re-seeded in a new 75 cm2 flask in the appropriate treatment. Data was plotted in GraphPad Prism 9.

CM cells = assay: MTS viability assay, CM; assay type: cell-based; details: 72-hour drug incubation, Figure 1C
TYMS [7] = assay: Immunoblot of TYMS levels in treated PANC-1 cells; assay type: cell-based; details: PANC-1, 72 hours, Figure 1D
Method: as §1
A total of 20 μg of total protein lysate was loaded per lane of 10% Tris Glycine Gel (Invitrogen, catalog EC6076). SDS-PAGE was run at 150 V for 1.5 to 2 hours. Proteins were transferred to nitrocellulose membranes using iBlot (Invitrogen, catalog IB3011002). Membranes were blocked with 5% nonfat dry milk (Lab Scientific, catalog M0841) in Tris-buffered saline supplemented with Tween 20 (0.1%) (TBS-T) for 45–60 minutes at room temperature (RT). […] Signal was detected using West Pico Plus chemiluminescence substrate (Thermo Fisher Scientific, catalog 34580) following manufacturer’s recommendations. […] For protein-level quantification relative to loading control, densitometric analysis was performed by ImageJ software (NIH).

[8] = test system: 5-FU-resistant PANC-1 cells; assay: Clonability assay in 5-FU-resistant PANC-1 cells; assay type: cell-based; details: 8.35 μM 19-S or 6.5 μM 5-FU, 21 days
Method: 500 PANC- 1 cells resistant to 6.5 µM 5-FU cells were seeded in 6 well plates by triplicate in media
After 21 days, cells were washed with PBS, fixed with Methanol for 20 minutes and stained with
1% Crystal violet (in PBS) for 20 minutes. After extensive washing, plates were let dry and colonies
were counted and plotted in GraphPad Prism 9. Images were taken using scanner Epson Perfection

O=c1[nH]cc(F)c(=O)[nH]1 [Compound 5-FU, 5-fluorouracil]
GI50 (MIA PaCa-2 cells): 20.4 µM
Tumor volume compared with control mice [1]: significant reduction in tumor volume
GI50 (PANC-1 cells): 15.7 µM
GI50 [2]: 3.63 µM
GI50 (BON cells): 7.47 µM
IC50 (BON cells): 7.1 µM
TYMS protein level in tumors (TYMS [3]): higher than TYMS protein level in vehicle-treated controls
MTD at 3 treatment cycles (5 consecutive days of daily dosing each) (in vivo [4]): 25 mg/kg
MTD at 3 treatment cycles (5 consecutive days of daily dosing each) (in vivo [5]): 25 mg/kg
Effect on cell counts after 1 week [6]: potent cytotoxic effect
Viable cells after 4 weeks of treatment [6]: remained detectible
GI50 (CM cells): 14.8 µM
TYMS protein expression after treatment (TYMS [7]): 3 fold
Colony formation [8]: colonies were observed
